# Reference: patent US12594293B2, “Use of 6-thio-dG to treat therapy-resistant telomerasepositive pediatric brain tumors” (The Board of Regents of The University of Texas System, priority 2018, dated 2026)
# Tests used:
# MB004 tumors = test system: MB004 tumors
# Procedure: Mouse subcutaneous and orthotopic xenograft. Athymic Ncr-nu/nu female mice (6-7 weeks old) were subcutaneously injected with 10,000 MB004 cells. Mice were weighed and distributed in two groups (control and 6-thio-dG). After tumor-establishment (day 23-24 post-implantation) with an average volume of 100-200 mm3, mice were injected intraperitoneally (i.p) every 2 days with 6-thio-dG (2.5 mg/kg) or DMSO-PBS (vehicle) for 3-4 weeks until euthanization. Tumors were measured by slide calipers taking two longest tumor-diameters (length and width) perpendicular to each other and volumes were calculated by using the formula: (π/6)×d3, where d=mean diameter. For orthotopic xenograft, CCHMC-DIPG-1 luciferase-positive cells (10,000) were injected in the brain of NRG (NOD.Cg-Rag1tm1Mom Il2rgtm1Wjl/SzJ) mice. Briefly, mice were injected stereotactically with 2 μl medium containing 10,000 luciferase-positive cells. The coordinates for injection were 0.8-1 mm posterior to lambda suture and 3.5 mm deep, corresponding to the pons location in the brain. Tumors were visualized by luminescence using IVIS Spectrum CT in vivo imaging system (PerkinElmer). All animal procedures were approved by the Institutional Animal Care and Use Committee (IACUC) (protocol #IACUC2015-0066, CCHMC).
# Immunohistochemistry. Formalin-fixed paraffin-embedded (FFPE) sections were deparaffinized in xylene followed by rehydration through a graded ethanol concentration series. Heat-induced antigen retrieval was performed by steaming slides for 20 minutes in 10 mM Citrate buffer (pH 6.0). […] Slides were washed with TBST (×3) and were treated with biotinylated anti-rabbit secondary antibody (1:500) and signal-amplified using ABC Kit (Vector Laboratories). Signal was visualized with DAB (Vector Laboratories) and counterstained with Harris Hematoxylin (Sigma). H & E staining was performed using hematoxylin-1 and eosin-Y (Thermo Scientific). Tissues were mounted with Permount (Fisher Scientific) and imaged by Nikon eclipse 80i microscope.
# Tissue TIF assay. Tissue samples were pre-fixed with 4% PFA and were cryo-protected in 25% sucrose/PBS solution, then embedded in OCT freezing molds with Neg-50 (VWR) in acetone and dry ice followed by cryo-sectioning. Heat-induced antigen retrieval and Telomere-FISH was performed as described above. The samples were incubated in blocking solution (5% donkey serum, 0.3% Triton X-100 in TBS) for 30 minutes and treated with anti-53BP1 (rabbit 1:500; Novus Biologicals) for 1 hour at room temperature. After washing in TBST (×3), the samples were incubated with secondary antibody Alexa-Fluor 488-conjugated donkey anti-rabbit (1:400; Jackson ImmunoResearch), and washed in TBS (×3). The samples were embedded in mounting media with DAPI (Vector Laboratories H1200). Images were captured with 60× oil objective on Nikon Eclipse Ti confocal microscope.
# [1] = test system: telomerase-positive cells including brain tumor cells; experiment: Cell growth assay, panel of telomerase-positive cells; assay type: cell-based, human
# Procedure: Cell growth and sphere formation assay. After dissociating primary neurospheres by TrypLE express (Gibco), single cells were seeded in respective growth media in 6-well plates and were incubated for one week at varying concentrations (0.5 to 10 μM) of 6-thio-dG or DMSO. Fresh culture media were added every three days. Viable cell numbers were determined by trypan blue exclusion method. For sphere formation assay, MB004 single cells were seeded in limited dilution (10 cells/well in 96-well plate) and treated with DMSO or 6-thio-dG. Sphere formation was monitored by microscopy.
# [2] = 2.5 mg/kg i.p. every 2 days for 3-4 weeks
# [3] = 2.5 mg/kg i.p. every 2 days, vs untreated group
smiles,measurement,setting,value
"Nc1nc2c(ncn2[C@H]2C[C@H](O)[C@@H](CO)O2)c(=S)[nH]1 [6-thio-dG, 6-thio-2′-deoxyguanosine]",in-tumor cells with at least 1-3 TIFs,MB004 tumors; 2.5 mg/kg i.p. every 2 days,More than 21%
same,population of cells with 4-6 TIFs per cell,MB004 tumors; 2.5 mg/kg i.p. every 2 days,detected only in treated tumors
same,treated mice with fast tumor growth,MB004 tumors; [2],Two out of six
same,treated mice with reduced or delayed tumor growth,MB004 tumors; [2],Four out of six
same,in-tumor apoptosis (cleaved caspase-3 IHC),"MB004 tumors; 2.5 mg/kg i.p. every 2 days, vs control group",significant increase in apoptosis
same,apoptotic bodies (H & E),MB004 tumors; [3],increase in apoptotic bodies
same,number of mitotic figures (H & E),MB004 tumors; [3],significant decrease
same,probability of animal survival,"MB004 tumors; upon reaching tumor volume of 1500 mm^3, vs vehicle group",significantly higher
same,cell growth,[1]; 0.5 to 10 μM every three days for one week,inhibited cell growth in a dose-dependent manner
same,IC50,"[1]; Homo sapiens, all telomerase-positive cells including brain tumor cells (Table S2)",140 to 1450 nM
